PubChem BioAssay (NCI)
Where “and” joins values, the source holds several entries; their conditions need not be identical. Equal values may be shown once.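 Five compound concentrations were applied to cells in 96-well plates for 48 hours; endpoints were derived by simple linear interpolation of the resulting dose-response curve. GI50 is the concentration that inhibits growth by half. TGI denotes the concentration required for complete inhibition of growth.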

Tests used:
Test in all cases: NCI-60 cell line screen, 48 h
SNB-19 CNS = tested on: SNB-19 CNS
MOLT-4 leukemia = tested on: MOLT-4 leukemia
HCT-116 colon = tested on: HCT-116 colon
ACHN renal = tested on: ACHN renal
M19-MEL melanoma = tested on: M19-MEL melanoma
KM12 colon = tested on: KM12 colon
DLD-1 colon = tested on: DLD-1 colon
SK-OV-3 ovarian = tested on: SK-OV-3 ovarian
SK-MEL-5 melanoma = tested on: SK-MEL-5 melanoma
UACC-62 melanoma = tested on: UACC-62 melanoma

Structure (SMILES) | TGI (SNB-19 CNS) [µM] | TGI (MOLT-4 leukemia) | TGI (HCT-116 colon) [µM] | TGI (ACHN renal) [µM] | TGI (M19-MEL melanoma) [µM] | TGI (KM12 colon) [µM] | TGI (DLD-1 colon) [µM] | TGI (SK-OV-3 ovarian) [µM] | TGI (SK-MEL-5 melanoma) [µM] | TGI (UACC-62 melanoma) [µM] | GI50 (HCT-116 colon) [µM] | GI50 (DLD-1 colon) [µM]
CC(=O)OC1=CC(n2cc(F)c(=O)[nH]c2=O)OC(C)C1=O (configuration not stated) | > 100 | > 100 µM | > 100 | > 100 | > 100 | > 100 | > 100 | > 100 | > 100 | > 100 | – | –
O=C(/C=C\c1ccc(Cl)c(Cl)c1)c1ccc(Cl)cc1Cl | 56.2 | 7.86 µM and 48.4 µM | > 100 | 31.6 | 81.1 | 25.2 | 26.8 | 51 | 30.8 | 35.6 | 2.68 | 12.6
CSc1nc(NC2OCC(OC(C)=O)C(OC(C)=O)C2OC(C)=O)c(N=CC=Nc2c(NC3OCC(OC(C)=O)C(OC(C)=O)C3OC(C)=O)nc(SC)[nH]c2=O)c(=O)[nH]1 (configuration not stated) | > 85.8 | > 100 µM | > 100 | > 88.7 | > 100 | > 100 | > 100 | 80.1 | > 100 | > 100 | – | –
CCCCCCCCC/C=C1\CCC(CN2CCOCC2)C1=O (configuration not stated) | 23.5 | 5.84 µM | 4.04 | 16.5 | 10.4 | 5.2 | 3.9 | 31.2 | 18.8 | 10.7 | – | –
CC(=O)/C(=C\c1cccc([N+](=O)[O-])c1)C(=O)Nc1ccccc1C | > 100 | > 100 µM | > 100 | > 100 | > 100 | > 100 | > 100 | > 100 | > 100 | > 100 | – | –
CCc1cc(Cc2cc(CC)c(NC(=O)C(=O)Cc3ccccn3)c(CC)c2Cl)c(Cl)c(CC)c1NC(=O)C(=O)Cc1ccccn1 | > 100 | > 100 µM | > 100 | > 100 | > 100 | > 100 | > 100 | > 100 | > 100 | > 100 | – | –
O=c1cc(-c2ccccc2)oc2cc(OCCCOc3ccc4c(=O)cc(-c5ccccc5)oc4c3)ccc12 | > 100 | > 100 µM | > 100 | > 100 | > 100 | > 100 | > 100 | > 100 | > 100 | > 100 | – | –
